Laboratory results as given in patent EP4737445A1, “NOVEL SATURATED HETEROCYCLE-SUBSTITUTED HETEROARYL-CARBONOHYDRAZONOYL DICYANIDE COMPOUND AND USE THEREOF” (Korea Institute of Science and Technology, priority 2023, dated 2025).
Where two headings read alike, the source gives them in different places.

Tests used:
Format in all cases: cell-based
TDP-43 protein = biological target: T1, TDP-43 protein (Homo sapiens, UniProt Q13148); test: TDP-43 aggregation inhibition in TDP-43-BiFC cell model (Forskolin-induced); conditions: for inhibition at 3 µM: read-out: TDP-43 protein aggregation inhibitory effect: Aggregation inhibitory effect (%) (@3 uM)
T1 construct: BiFC fluorescent-protein fragments (two complementary halves); expressed in transfected cells
Protocol: (§1) To screen for new TDP-43 aggregation inhibitors, a TDP-43-BiFC cell model that facilitates observation of TDP-43 aggregate formation in living cells was used. Specifically, TDP-43-BiFC cells were dispensed into a 384-well plate, and the next day, the compounds prepared according to Examples 1 to 46 were treated at concentrations of 3 and 10 µM, respectively, together with Forskolin (treatment concentration 30 µM), which is a compound that induces TDP-43 aggregation by activating the phosphorylation enzyme PKA. After 48 hours, nuclei within cells were stained using Hoechst (treatment concentration 1 µg/mL), and BiFC fluorescence intensity was automatically quantified using Operetta (PerkinElmer) to count the stained nuclei in each well from the entire plate. The group treated only with Forskolin, which induces TDP-43 aggregation, was set as the reference point with 100% TDP-43 aggregation state, and the effect was confirmed by the formula "(BiFC fluorescence intensity by the compounds synthesized according to the Examples of the disclosure - fluorescence intensity of the untreated control group)/(fluorescence intensity of the control group treated only with Forskolin that induces TDP-43 aggregation - fluorescence intensity of the untreated control group) × 100". In addition, the degree of cytotoxicity induced by the newly synthesized compounds was also calculated using the formula "(number of stained nuclei in the compound-treated group/number of stained nuclei in the Forskolin-treated group) × 100", with the group treated only with Forskolin as the reference point at 100% viability. From the treatment results, substances that inhibit intracellular TDP-43 aggregation were identified through screening from a series of candidates based on the criteria of 80% or more TDP-43 aggregation inhibition and 60% cell viability at a compound treatment concentration of 3 µM.
(§2) Furthermore, to confirm the TDP-43 aggregation inhibitory effect according to the concentration of the compounds screened in Experimental Example 3, the screened compounds were treated to […] at concentrations of 0.003, 0.01, 0.03, 0.1, 0.3, 1, 3, and 10 µM, respectively, together with Forskolin (treatment concentration 30 µM), which is a TDP-43 aggregation-inducing substance. After 48 hours, cell images were examined to analyze the TDP-43 aggregation reaction and degree of cytotoxicity. The IC50 and toxicity of the compounds were analyzed by nonlinear regression analysis using Prism software (GraphPad). The calculated results for representative compounds are shown in Table 4 below: TDP-43 protein aggregation inhibitory effect and cell viability of novel compounds.

TDP-43 BiFC cells = test: Cell viability (stained nuclei count) in TDP-43-BiFC cells; conditions: Forskolin-only group = 100%
Protocol: as §1, §2

Tau = biological target: T2, Tau (Homo sapiens, UniProt P10636); test: Tau aggregation inhibition in Tau-BiFC cell model (Forskolin-induced)
T2 construct: BiFC fluorescent-protein fragments (two complementary halves on two tau copies); expressed in transfected cells
Protocol: To screen for new tau aggregation inhibitors, a Tau-BiFC cell model that facilitates observation of tau oligomer formation in living cells was used. Tau-BiFC cells were dispensed into a 384-well plate, and the next day, the compounds prepared according to Examples 1 to 46 were treated at concentrations of 1, 3, and 10 µM, respectively, together with Forskolin (treatment concentration 30 µM), which is a compound that induces tau aggregation by activating the tau phosphorylation enzyme PKA. After 48 hours, nuclei within cells were stained using Hoechst (treatment concentration 2 µg/mL), and BiFC fluorescence intensity was automatically quantified using Operetta (Perkin Elmer) to count the stained nuclei in each well from the entire plate. The group treated only with Forskolin, which induces tau aggregation, was set as the reference point with 100% tau aggregation state, and the effect was confirmed by the formula "BiFC fluorescence intensity by the compounds synthesized according to the Examples of the disclosure/(fluorescence intensity of the control group treated only with Forskolin that induces tau aggregation - fluorescence intensity of the untreated control group) × 100". In addition, the degree of cytotoxicity induced by the newly synthesized compounds was also calculated using the formula "(number of stained nuclei in the compound-treated group/number of stained nuclei in the Forskolin-treated group) × 100", with the group treated only with Forskolin as the reference point at 100% viability. From the treatment results, substances that inhibit intracellular tau aggregation were identified through screening from a series of candidates based on the criteria of 70% or more tau aggregation inhibition and 100% cell viability at a compound treatment concentration of 10 µM.
To confirm the tau aggregation inhibitory effect according to the concentration of the compounds screened in Experimental Example 1, the screened compounds were treated to Tau-BiFC cells at concentrations of 0.03, 0.1, 0.3, 1, 3, 10, and 30 µM, respectively, together with Forskolin (treatment concentration 30 µM), which is a tau aggregation-inducing substance. After 48 hours, cell images were examined to analyze the tau aggregation reaction and degree of cytotoxicity. The IC50 and toxicity of the compounds were analyzed by nonlinear regression analysis using Prism software (GraphPad). The calculated results for representative compounds are shown in Table 3 below: Tau aggregation inhibitory effect and cell viability of novel compounds.

[1] = read-out: Tau aggregation inhibitory effect IC50, Tau-BiFC cell line, Forskolin 30 µM, 48 hours, 0.03-30 µM

T2 sequence (P10636 1-441 isoform P10636-8): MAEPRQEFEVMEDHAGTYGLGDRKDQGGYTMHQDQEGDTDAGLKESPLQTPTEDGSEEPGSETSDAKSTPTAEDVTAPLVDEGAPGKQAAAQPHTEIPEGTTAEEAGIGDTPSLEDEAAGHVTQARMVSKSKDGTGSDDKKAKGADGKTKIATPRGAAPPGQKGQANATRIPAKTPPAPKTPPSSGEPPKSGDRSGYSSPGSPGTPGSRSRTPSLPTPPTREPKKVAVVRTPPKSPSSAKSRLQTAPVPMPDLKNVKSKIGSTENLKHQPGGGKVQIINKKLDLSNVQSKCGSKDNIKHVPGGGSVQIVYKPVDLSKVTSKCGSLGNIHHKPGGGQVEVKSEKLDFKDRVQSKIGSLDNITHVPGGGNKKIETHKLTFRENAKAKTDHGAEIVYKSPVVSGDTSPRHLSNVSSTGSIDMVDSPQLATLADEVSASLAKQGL
T1 sequence (Q13148 whole entry, the tested form may be a part): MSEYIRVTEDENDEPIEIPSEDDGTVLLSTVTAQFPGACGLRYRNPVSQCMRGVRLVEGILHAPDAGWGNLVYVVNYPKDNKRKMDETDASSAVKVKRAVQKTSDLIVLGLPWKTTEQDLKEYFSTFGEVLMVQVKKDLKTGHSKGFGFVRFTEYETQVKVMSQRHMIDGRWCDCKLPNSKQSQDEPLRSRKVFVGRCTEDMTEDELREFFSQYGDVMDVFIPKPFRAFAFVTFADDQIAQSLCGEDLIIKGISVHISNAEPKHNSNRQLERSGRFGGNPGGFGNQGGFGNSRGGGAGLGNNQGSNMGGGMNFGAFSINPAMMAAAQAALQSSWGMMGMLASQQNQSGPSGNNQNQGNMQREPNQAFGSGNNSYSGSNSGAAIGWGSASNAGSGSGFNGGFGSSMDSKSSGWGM

SMILES	inhibition at 3 µM (TDP-43 protein)	Cell viability (%) (@ 3 uM) (TDP-43 BiFC cells)	IC50 (Tau)	IC50 (TDP-43 protein)	IC50 (Tau; [1])
CN1CCN(c2nc3ccc(NN=C(C#N)C#N)cc3o2)CC1 [Compound 14, (2-(4-methylpiperazin-1-yl)benzo[d]oxazol-6-yl)carbonohydrazonoyl dicyanide]	100%	101.4%	48 nM	–	–
N#CC(C#N)=NNc1ccc2nc(N3CC4CCC(C3)O4)oc2c1 [Compound 26, (2-(8-oxa-3-azabicyclo[3.2.1]octan-3-yl)benzo[d]oxazol-6-yl)carbonohydrazonoyl dicyanide]	94.8%	76.1%	10 nM	248 nM	–
N#CC(C#N)=NNc1ccc2nc(N3CC[C@@H](F)C3)oc2c1 [Compound 41, (R)-(2-(3-fluoropyrrolidin-1-yl)benzo[d]oxazol-6-yl)carbonohydrazonoyl dicyanide]	87.8%	71.5%	–	–	260 nM
Cn1c(N2C3CCC2COC3)nc2ccc(NN=C(C#N)C#N)cc21 [Compound 34, (2-(3-oxa-8-azabicyclo[3.2.1]octan-8-yl)-1-methyl-1H-benzo[d]imidazol-6-yl)carbonohydrazonoyl dicyanide]	82.4%	59.5%	12 nM	10 nM	–
N#CC(C#N)=NNc1ccc2nc(NC(=O)N3CC4CCC(C3)O4)sc2c1 [Compound 40, (2-(8-oxa-3-azabicyclo[3.2.1]octane-3-carboxamido)benzo[d]thiazol-6-yl)carbonohydrazonoyl dicyanide]	67.7%	95.6%	–	–	316 nM
CC1CN(c2nc3ccc(NN=C(C#N)C#N)cc3s2)CCO1 (stereo not shown) [Compound 12, (2-(2-methylmorpholino)benzo[d]thiazol-6-yl)carbonohydrazonoyl dicyanide]	100%	73.0%	32 nM	–	–
CC(C)N1CCN(c2nc3ccc(NN=C(C#N)C#N)cc3s2)CC1 [Compound 27, (2-(4-isopropylpiperazin-1-yl)benzo[d]thiazol-6-yl)carbonohydrazonoyl dicyanide]	48.2%	104.8%	44 nM	–	–
CC(C)N1CCN(c2nc3ccc(NN=C(C#N)C#N)cc3o2)CC1 [Compound 28, (2-(4-isopropylpiperazin-1-yl)benzo[d]oxazol-6-yl)carbonohydrazonoyl dicyanide]	57.1%	113.4%	16 nM	–	–
CC1COCCN1c1nc2ccc(NN=C(C#N)C#N)cc2s1 (stereo not shown) [Compound 13, (2-(3-methylmorpholino)benzo[d]thiazol-6-yl)carbonohydrazonoyl dicyanide]	100%	63.6%	20 nM	–	–
N#CC(C#N)=NNc1ccc2nc(N3C4CCC3COC4)oc2c1 [Compound 20, (2-(3-oxa-8-azabicyclo[3.2.1]octan-8-yl)benzo[d]oxazol-6-yl)carbonohydrazonoyl dicyanide]	91.7%	75.4%	11 nM	140 nM	–
N#CC(C#N)=NNc1ccc2oc(N3CCOCC3)nc2c1 [Compound 3, (2-morpholinobenzo[d]oxazol-5-yl)carbonohydrazonoyl dicyanide]	79.6%	102.3%	20 nM	–	–
CCn1c(N2CCOCC2)nc2cc(NN=C(C#N)C#N)ccc21 [Compound 33, (1-ethyl-2-morpholino-1H-benzo[d]imidazol-5-yl)carbonohydrazonoyl dicyanide]	93.9%	55.0%	4 nM	124 nM	–
CC1CN(c2nc3ccc(NN=C(C#N)C#N)cc3s2)CC(C)O1 (stereo not shown) [Compound 10, (2-(2,6-dimethylmorpholino)benzo[d]thiazol-6-yl)carbonohydrazonoyl dicyanide]	100%	83.8%	24 nM	–	–
